According to BindingDB's records for doi:10.1016/j.bmcl.2015.05.018 (Martin-Luther-University Halle-Wittenberg, 2015):

Assays:
[1] = Inhibition of human P-gp expressed in mouse T-cell lymphoma assessed as potentiation of daunorubicin-induced cellular toxicity by measuring daunorubicin IC50 at 10 uM by MTT assay (Rvb = 8.26 +/- 0.62 uM)
[2] = Inhibition of human P-gp expressed in mouse T-cell lymphoma assessed as potentiation of daunorubicin-induced cellular toxicity by measuring daunorubicin IC50 at 5 uM by MTT assay (Rvb = 8.26 +/- 0.62 uM)

In the case of `CCOC(=O)C1=CN(Cc2ccccc2)c2ccccc2C1c1cccc(OC)c1` (stereo not drawn), the IC50 [1] is reported as 860 nM.

In the case of `CCOC(=O)C1=CN(Cc2ccccc2)c2ccccc2C1c1ccc(OC)c(OC)c1` (stereo not drawn), the IC50 [1] is reported as 390 nM and the IC50 [2] is reported as 4760 nM.
